From the supplement of paper PMC11061612

What was measured:
[1] = system: NCI-H2066 (Squamous Cell Lung Carcinoma); test: combination Emax (second highest fraction inhibited in the dose matrix, 72 h); higher = more inhibition; extreme values may be limits of the assay
Procedure, shortened: (§1)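 Cell lines grown in DMEM/F12 or RPMI with 10% FBS were plated in 1536-well plates and held 24 hours at 37°C, 5% CO2 before 72 hours of exposure to two-drug dose matrices, with DMSO typically at 0.2%. CellTiter-Glo 2.0 luminescence gave viability, which was converted to inhibition. Vehicle wells were set to 0 and blank wells to 1. Combination Emax is the second-highest inhibition in the matrix, and Bliss excess is the observed combination effect minus the expected EA + EB − EA·EB, where EA and EB are the single-agent effects.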

[2] = system: NCI-H1666 (Lung Adenocarcinoma); test: as above
Procedure, shortened: as §1

SMILES: CS(=O)(=O)CCNCc1ccc(-c2ccc3ncnc(Nc4ccc(OCc5cccc(F)c5)c(Cl)c4)c3c2)o1 [Lapatinib] + NC1(c2ccc(-c3nc4ccn5c(=O)[nH]nc5c4cc3-c3ccccc3)cc2)CCC1 [MK-2206] (first compound max 10 µM, 7x7, partner max 10 µM)
- combination Emax [1]: 0.659
- combination Emax [2]: 0.898
